# Measurements as given in patent US12083124B2 (Incyte Corporation, priority 2019, dated 2024).
# Read-outs that look alike come from different tables or passages of the source.
# What was measured:
# [1] = molecular target: wild-type un-phosphorylated FGFR3 (Homo sapiens, UniProt P22607); experiment: FGFR Enzymatic Assay (FRET peptide phosphorylation), FGFR3
# [2] = molecular target: wild-type un-phosphorylated FGFR1 (Homo sapiens, UniProt P11362); experiment: FGFR Enzymatic Assay (FRET peptide phosphorylation), FGFR1; conditions: pre-incubated for 4 hours
# [3] = molecular target: wild-type un-phosphorylated FGFR4 (Homo sapiens, UniProt P22455); experiment: FGFR Enzymatic Assay (FRET peptide phosphorylation), FGFR4
# [4] = molecular target: wild-type un-phosphorylated FGFR2 (Homo sapiens, UniProt P21802); experiment: FGFR Enzymatic Assay (FRET peptide phosphorylation), FGFR2
# Experimental: The inhibitor potency of the exemplified compounds was determined in an enzyme discontinuous assay that measures peptide phosphorylation using FRET measurements to detect product formation. Inhibitors were serially diluted in DMSO and a volume of 0.2 μL was transferred to the wells of a 384-well plate. […] Appropriate controls (enzyme blank and enzyme with no inhibitor) were included on the plate. […] The 10 μL/well reaction concentration of the peptide substrate was 500 nM whereas the ATP concentration was maintained near or below the ATP Km. The ATP Km values were pre-determined in a separate series of experiments. The reaction plate was incubated at 25° C. for 1 hr and the reactions were ended with the addition of 5 μL/well of quench solution (50 mM Tris, 150 mM NaCl, 0.5 mg/mL BSA, pH 7.8; 45 mM EDTA, 600 nM staurosporin, with Perkin Elmer Lance Reagents at 3.75 nM Eu-antibody PY20 and 180 nM APC-Streptavidin). The plate was allowed to equilibrate for ˜10 minutes at ambient temperature before scanning on a PheraStar plate reader (BMG Labtech) instrument.
# Either GraphPad prism or XLfit was used to analyze the data. The IC50 values were derived by fitting the data to a four parameter logistic equation producing a sigmoidal dose-response curve with a variable Hill coefficient. Prism equation: Y=Bottom+(Top-Bottom)/(1+10^((Log IC50-X)*Hill slope)); XLfit equation: Y=(A+((B−A)/(1+((X/C)^D)))) where X is the logarithm of inhibitor concentration and Y is the response.
# GraphPad prism3 was used to analyze the data. The IC50 values were derived by fitting the data to the equation for a sigmoidal dose-response with a variable slope. Y=Bottom+(Top-Bottom)/(1+10^((Log IC50-X)*Hill Slope)) where X is the logarithm of concentration and Y is the response.
# The data in Table 1 was measured in wild-type un-phosphorylated FGFR1, FGFR2, FGFR3, and FGFR4 proteins.
# [5] = read-out: FGFR1, wild-type un-phosphorylated FGFR1
# [6] = read-out: FGFR4, wild-type un-phosphorylated FGFR4, pre-incubated for 4 hours
# [7] = FGFR1, wild-type un-phosphorylated FGFR1
# Chain of wild-type un-phosphorylated FGFR2 (P21802 22-821): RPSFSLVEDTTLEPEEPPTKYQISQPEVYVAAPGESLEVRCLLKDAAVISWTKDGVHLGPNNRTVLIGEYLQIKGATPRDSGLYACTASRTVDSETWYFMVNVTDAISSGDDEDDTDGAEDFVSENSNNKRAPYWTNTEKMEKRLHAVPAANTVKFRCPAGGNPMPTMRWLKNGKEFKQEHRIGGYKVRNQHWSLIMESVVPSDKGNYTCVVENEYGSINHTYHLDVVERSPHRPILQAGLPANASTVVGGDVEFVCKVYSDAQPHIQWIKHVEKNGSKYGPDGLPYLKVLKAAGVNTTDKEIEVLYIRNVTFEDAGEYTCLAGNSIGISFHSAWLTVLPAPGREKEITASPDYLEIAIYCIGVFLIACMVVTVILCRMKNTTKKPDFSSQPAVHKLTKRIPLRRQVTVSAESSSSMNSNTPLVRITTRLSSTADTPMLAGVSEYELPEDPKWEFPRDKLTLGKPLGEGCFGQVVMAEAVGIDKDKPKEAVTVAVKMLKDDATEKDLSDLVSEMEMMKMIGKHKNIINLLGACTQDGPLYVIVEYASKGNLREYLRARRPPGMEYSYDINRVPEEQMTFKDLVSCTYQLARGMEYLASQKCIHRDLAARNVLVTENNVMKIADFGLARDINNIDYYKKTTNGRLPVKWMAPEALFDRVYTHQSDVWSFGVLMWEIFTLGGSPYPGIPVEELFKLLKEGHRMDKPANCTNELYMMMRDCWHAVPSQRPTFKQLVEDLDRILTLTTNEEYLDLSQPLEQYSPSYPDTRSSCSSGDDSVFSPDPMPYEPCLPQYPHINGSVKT
# Chain of wild-type un-phosphorylated FGFR1 (P11362 22-822): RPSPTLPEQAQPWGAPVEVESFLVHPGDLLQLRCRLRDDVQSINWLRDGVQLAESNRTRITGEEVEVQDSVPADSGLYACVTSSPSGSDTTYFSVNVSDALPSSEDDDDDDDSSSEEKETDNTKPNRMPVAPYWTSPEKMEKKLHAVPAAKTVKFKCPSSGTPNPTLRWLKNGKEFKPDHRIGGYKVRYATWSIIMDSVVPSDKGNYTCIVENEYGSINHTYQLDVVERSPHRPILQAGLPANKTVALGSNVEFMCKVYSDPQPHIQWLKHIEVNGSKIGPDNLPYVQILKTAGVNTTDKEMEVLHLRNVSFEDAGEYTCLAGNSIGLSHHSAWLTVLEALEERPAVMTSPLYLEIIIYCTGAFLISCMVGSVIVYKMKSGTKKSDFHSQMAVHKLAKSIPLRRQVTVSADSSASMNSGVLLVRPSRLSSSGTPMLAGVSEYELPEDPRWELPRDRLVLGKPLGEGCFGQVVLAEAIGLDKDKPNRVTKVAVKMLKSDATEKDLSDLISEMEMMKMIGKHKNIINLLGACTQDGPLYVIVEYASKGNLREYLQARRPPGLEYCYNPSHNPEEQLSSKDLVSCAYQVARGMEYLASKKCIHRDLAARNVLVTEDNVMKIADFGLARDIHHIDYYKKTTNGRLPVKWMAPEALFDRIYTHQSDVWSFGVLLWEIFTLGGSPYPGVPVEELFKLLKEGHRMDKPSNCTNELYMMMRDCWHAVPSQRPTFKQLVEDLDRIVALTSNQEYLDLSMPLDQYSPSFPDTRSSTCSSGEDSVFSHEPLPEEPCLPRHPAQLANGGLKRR
# Chain of wild-type un-phosphorylated FGFR3 (P22607 23-806): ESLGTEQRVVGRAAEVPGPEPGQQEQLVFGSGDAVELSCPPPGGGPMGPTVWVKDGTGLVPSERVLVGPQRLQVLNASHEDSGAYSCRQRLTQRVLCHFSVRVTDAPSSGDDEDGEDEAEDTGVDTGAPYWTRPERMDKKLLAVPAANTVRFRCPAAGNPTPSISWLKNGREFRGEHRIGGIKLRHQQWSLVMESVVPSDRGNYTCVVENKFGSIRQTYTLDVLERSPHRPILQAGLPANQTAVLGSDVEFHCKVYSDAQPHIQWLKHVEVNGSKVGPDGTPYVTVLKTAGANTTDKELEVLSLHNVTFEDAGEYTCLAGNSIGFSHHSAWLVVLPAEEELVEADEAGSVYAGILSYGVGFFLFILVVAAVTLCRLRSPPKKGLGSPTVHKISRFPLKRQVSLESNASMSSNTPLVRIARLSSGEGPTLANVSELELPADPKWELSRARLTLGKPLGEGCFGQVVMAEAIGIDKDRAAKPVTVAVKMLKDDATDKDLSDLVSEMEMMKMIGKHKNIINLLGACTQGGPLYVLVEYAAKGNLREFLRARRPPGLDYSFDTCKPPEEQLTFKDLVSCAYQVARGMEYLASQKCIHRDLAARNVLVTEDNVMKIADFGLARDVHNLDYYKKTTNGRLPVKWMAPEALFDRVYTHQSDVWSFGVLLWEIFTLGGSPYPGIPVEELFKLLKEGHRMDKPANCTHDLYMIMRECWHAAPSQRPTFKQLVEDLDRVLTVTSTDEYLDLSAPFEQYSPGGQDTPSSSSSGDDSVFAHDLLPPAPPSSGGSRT
# Chain of wild-type un-phosphorylated FGFR4 (P22455 22-802): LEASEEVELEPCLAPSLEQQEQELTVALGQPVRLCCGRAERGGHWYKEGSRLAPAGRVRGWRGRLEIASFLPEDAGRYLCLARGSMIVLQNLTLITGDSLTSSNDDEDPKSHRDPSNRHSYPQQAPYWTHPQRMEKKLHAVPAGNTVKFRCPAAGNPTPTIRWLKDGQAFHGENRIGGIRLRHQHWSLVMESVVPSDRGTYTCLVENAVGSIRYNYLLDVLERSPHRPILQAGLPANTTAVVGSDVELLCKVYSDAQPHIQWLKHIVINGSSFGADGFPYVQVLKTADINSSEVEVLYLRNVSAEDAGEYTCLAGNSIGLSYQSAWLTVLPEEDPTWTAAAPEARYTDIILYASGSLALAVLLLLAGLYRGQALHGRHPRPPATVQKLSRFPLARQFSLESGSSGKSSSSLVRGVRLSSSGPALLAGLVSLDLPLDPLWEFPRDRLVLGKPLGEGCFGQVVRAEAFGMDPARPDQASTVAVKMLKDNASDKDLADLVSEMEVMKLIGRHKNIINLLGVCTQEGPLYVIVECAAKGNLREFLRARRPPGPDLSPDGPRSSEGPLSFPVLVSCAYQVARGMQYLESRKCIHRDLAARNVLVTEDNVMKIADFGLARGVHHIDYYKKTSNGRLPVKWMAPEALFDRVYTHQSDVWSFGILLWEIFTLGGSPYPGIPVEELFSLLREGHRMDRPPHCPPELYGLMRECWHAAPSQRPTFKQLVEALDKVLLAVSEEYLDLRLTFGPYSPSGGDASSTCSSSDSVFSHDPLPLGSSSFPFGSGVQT
structure (smiles),measurement,setting,value
"COc1cc2[nH]nc(-c3cnn([C@H]4CCN(C(=O)[C@H]5C[C@H](O)C5)C4)c3)c2nc1-c1cccc2c1CCC2 [Example 144, ((S)-3-(4-(5-(2,3-Dihydro-1H-inden-4-yl)-6-methoxy-1H-pyrazolo[4,3-b]pyridin-3-yl)-1H-pyrazol-1-yl)pyrrolidin-1-yl)((trans)-3-hydroxycyclobutyl)methanone]",IC50,[1],< 6 nM
same,IC50,[2]; [5],6 to 40 nM
same,IC50,[3]; [6],6 to 40 nM
same,IC50,[4],< 6 nM
"COc1cc2[nH]nc(-c3cnn(C4CN(S(=O)(=O)CCO)C4)c3)c2nc1-c1cccc2c1CCC2 [Example 150, 2-((3-(4-(5-(2,3-Dihydro-1H-inden-4-yl)-6-methoxy-1H-pyrazolo[4,3-b]pyridin-3-yl)-1H-pyrazol-1-yl)azetidin-1-yl)sulfonyl)ethan-1-ol]",IC50,[1],< 6 nM
same,IC50,[2]; [7],40 to 100 nM
same,IC50,[3],40 to 100 nM
same,IC50,[4],< 6 nM
"COc1cc2[nH]nc(-c3ccc([C@@]45C[C@@H]4CN(CCO)C5)cc3)c2nc1-c1cccc2c1CCC2C#N (stereo partly drawn) [Example 159, 4-(3-(4-((1R,5S)-3-(2-Hydroxyethyl)-3-azabicyclo[3.1.0]hexan-1-yl)phenyl)-6-methoxy-1H-pyrazolo[4,3-b]pyridin-5-yl)-2,3-dihydro-1H-indene-1-carbonitrile]",IC50,[1],< 6 nM
same,IC50,[2]; [5],6 to 40 nM
same,IC50,[3]; [6],6 to 40 nM
same,IC50,[4],< 6 nM
"COc1cc2[nH]nc(-c3cnn(C4CN(C(=O)[C@@H]5CCN5CCF)C4)c3)c2nc1-c1cccc2c1CCC2 [Example 141, (S)-(3-(4-(5-(2,3-Dihydro-1H-inden-4-yl)-6-methoxy-1H-pyrazolo[4,3-b]pyridin-3-yl)-1H-pyrazol-1-yl)azetidin-1-yl)(1-(2-fluoroethyl)azetidin-2-yl)methanone]",IC50,[1],< 6 nM
same,IC50,[2]; [5],6 to 40 nM
same,IC50,[3]; [6],6 to 40 nM
same,IC50,[4],< 6 nM
"COc1cc2[nH]nc(-c3cnn(C4CN(C(C)=O)C4)c3)c2nc1-c1cccc2c1CCC2 [Example 22, 1-(3-(4-(5-(2,3-Dihydro-1H-inden-4-yl)-6-methoxy-1H-pyrazolo[4,3-b]pyridin-3-yl)-1H-pyrazol-1-yl)azetidin-1-yl)ethan-1-one]",IC50,[1],< 6 nM
same,IC50,[2]; [7],40 to 100 nM
same,IC50,[3],40 to 100 nM
same,IC50,[4],< 6 nM
"COc1cc2[nH]nc(-c3ccc(C4(C#N)CCN(CCO)CC4)nc3)c2nc1-c1cccc2c1CCC2 [Example 164, 4-(5-(5-(2,3-Dihydro-1H-inden-4-yl)-6-methoxy-1H-pyrazolo[4,3-b]pyridin-3-yl)pyridin-2-yl)-1-(2-hydroxyethyl)piperidine-4-carbonitrile]",IC50,[1],< 6 nM
same,IC50,[2]; [7],40 to 100 nM
same,IC50,[3],40 to 100 nM
same,IC50,[4],< 6 nM
"COc1cc2[nH]nc(-c3cnn(C4CN(C(=O)CO)C4)c3)c2nc1-c1cccc2c1CCC2 [Example 116, 1-(3-(4-(5-(2,3-Dihydro-1H-inden-4-yl)-6-methoxy-1H-pyrazolo[4,3-b]pyridin-3-yl)-1H-pyrazol-1-yl)azetidin-1-yl)-2-hydroxyethan-1-one]",IC50,[1],< 6 nM
same,IC50,[2]; [5],6 to 40 nM
same,IC50,[3],40 to 100 nM
same,IC50,[4],< 6 nM
"COc1cc2[nH]nc(-c3ccc(N4CCN(C)CC4)nc3)c2nc1-c1cccc(C)c1C [Example 41, 5-(2,3-Dimethylphenyl)-6-methoxy-3-(6-(4-methylpiperazin-1-yl)pyridin-3-yl)-1H-pyrazolo[4,3-b]pyridine]",IC50,[1],< 6 nM
same,IC50,[2]; [7],40 to 100 nM
same,IC50,[3],40 to 100 nM
same,IC50,[4],< 6 nM
"COc1cc2[nH]nc(-c3ccc(C4CN(C(=O)CN(C)C)C4)nc3)c2nc1-c1cccc2c1CCC2 [Example 174, 1-(3-(5-(5-(2,3-Dihydro-1H-inden-4-yl)-6-methoxy-1H-pyrazolo[4,3-b]pyridin-3-yl)pyridin-2-yl)azetidin-1-yl)-2-(dimethylamino)ethan-1-one]",IC50,[1],< 6 nM
same,IC50,[2]; [5],6 to 40 nM
same,IC50,[3],40 to 100 nM
same,IC50,[4],< 6 nM
"CCN1CC[C@H]1C(=O)N1CC(n2cc(-c3n[nH]c4cc(OC)c(-c5cccc6c5CCC6)nc34)cn2)C1 [Example 140, (S)-(3-(4-(5-(2,3-dihydro-1H-inden-4-yl)-6-methoxy-1H-pyrazolo[4,3-b]pyridin-3-yl)-1H-pyrazol-1-yl)azetidin-1-yl)(1-ethylazetidin-2-yl)methanone]",IC50,[1],< 6 nM
same,IC50,[2]; [5],6 to 40 nM
same,IC50,[3],40 to 100 nM
same,IC50,[4],< 6 nM
"COc1cc2[nH]nc(-c3ccc(N4CCN(CCO)CC4)nc3)c2nc1-c1cccc2c1CCC2C#N (centres unmarked) [Example 114, 4-(3-(6-(4-(2-Hydroxyethyl)piperazin-1-yl)pyridin-3-yl)-6-methoxy-1H-pyrazolo[4,3-b]pyridin-5-yl)-2,3-dihydro-1H-indene-1-carbonitrile]",IC50,[1],< 6 nM
same,IC50,[2]; [5],6 to 40 nM
same,IC50,[3]; [6],6 to 40 nM
same,IC50,[4],< 6 nM
"COc1cc2[nH]nc(-c3ccc(C4CN(C(=O)[C@@H]5CCCCN5C)C4)nc3)c2nc1-c1cccc2c1CCC2 [Example 173, (S)-(3-(5-(5-(2,3-Dihydro-1H-inden-4-yl)-6-methoxy-1H-pyrazolo[4,3-b]pyridin-3-yl)pyridin-2-yl)azetidin-1-yl)(1-methylpiperidin-2-yl)methanone]",IC50,[1],< 6 nM
same,IC50,[2]; [5],6 to 40 nM
same,IC50,[3]; [6],6 to 40 nM
same,IC50,[4],< 6 nM
"COc1cc2[nH]nc(-c3cnn(C4CN(C(=O)[C@@H]5CCCO5)C4)c3)c2nc1-c1cccc2c1CCC2 [Example 130, (S)-(3-(4-(5-(2,3-Dihydro-1H-inden-4-yl)-6-methoxy-1H-pyrazolo[4,3-b]pyridin-3-yl)-1H-pyrazol-1-yl)azetidin-1-yl)(tetrahydrofuran-2-yl)methanone]",IC50,[1],< 6 nM
same,IC50,[2]; [5],6 to 40 nM
same,IC50,[3]; [6],6 to 40 nM
same,IC50,[4],< 6 nM
"COc1cc2[nH]nc(-c3cnn(C4CN(C(=O)[C@H]5C[C@@](C)(O)C5)C4)c3)c2nc1-c1cccc2c1CCC2 [Example 136, (3-(4-(5-(2,3-Dihydro-1H-inden-4-yl)-6-methoxy-1H-pyrazolo[4,3-b]pyridin-3-yl)-1H-pyrazol-1-yl)azetidin-1-yl)((1s,3s)-3-hydroxy-3-methylcyclobutyl)methanone]",IC50,[1],< 6 nM
same,IC50,[2]; [5],6 to 40 nM
same,IC50,[3]; [6],6 to 40 nM
same,IC50,[4],< 6 nM
"COc1cc2[nH]nc(-c3ccc(C4CCN(C(=O)N5CCOCC5)CC4)nc3)c2nc1-c1cccc2c1CCC2C#N (single isomer, unassigned) [Example 181, 4-(6-Methoxy-3-(6-(1-(morpholine-4-carbonyl)piperidin-4-yl)pyridin-3-yl)-1H-pyrazolo[4,3-b]pyridin-5-yl)-2,3-dihydro-1H-indene-1-carbonitrile]",IC50,[1],< 6 nM
same,IC50,[2]; [5],6 to 40 nM
same,IC50,[3]; [6],6 to 40 nM
same,IC50,[4],< 6 nM
"COc1cc2[nH]nc(-c3cnn(C4CN(C(=O)N(C)C)C4)c3)c2nc1-c1cccc(C)c1F [Example 52, 3-(4-(5-(2-Fluoro-3-methylphenyl)-6-methoxy-1H-pyrazolo[4,3-b]pyridin-3-yl)-1H-pyrazol-1-yl)-N,N-dimethylazetidine-1-carboxamide]",IC50,[1],< 6 nM
same,IC50,[2]; [7],> 100 nM
same,IC50,[3],> 100 nM
same,IC50,"[4]; read-out: FGFR2, wild-type un-phosphorylated FGFR2, pre-incubated for 4 hours",6 to 40 nM
"COC(=O)N1CCC(c2ccc(-c3n[nH]c4cc(OC)c(-c5cccc6c5CCC6C#N)nc34)cn2)CC1 (centres unmarked) [Example 180, Methyl 4-(5-(5-(1-Cyano-2,3-dihydro-1H-inden-4-yl)-6-methoxy-1H-pyrazolo[4,3-b]pyridin-3-yl)pyridin-2-yl)piperidine-1-carboxylate]",IC50,[1],< 6 nM
same,IC50,[2]; [7],40 to 100 nM
same,IC50,[3],40 to 100 nM
same,IC50,[4],< 6 nM
